Test results from patent US9387215B2, “Animal feed including cationic cholesterol additive and related methods” (priority 2013, dated 2016).

Experiments:
Assay type in all cases: in vivo
[1] = tested on: C. difficile; assay: LD50 C. difficile challenge model, survival of mice; settings: administered 24 hours after C. difficile challenge; Day 0, Day 3, Day 10; versus control mice; FIG. 5
Procedure: The mice of Example 2 were also evaluated for decreased morbidity in an LD50 C. difficile challenge model. The cationic cholesterol compound was administered 24 hours after C. difficile challenge (“Tx 24 Hr.”). FIG. 4 illustrates the steps used in performing the study.

[2] = tested on: C. difficile ATCC 9689; assay: Weight gain of mice after C. difficile challenge; settings: oral 10 mg/kg once, 24 and 48 hours after 1×10^5 cfu or 72 hours after 1×10^6 cfu challenge; FIG. 3
Procedure: In another study with the mice of Example 2, a cationic cholesterol additive was administered to determine changes in weight gain. The compound was administered orally @10/mg/kg once, 24 and 48 hours after C. difficile ATCC 9689 challenge at 1×10^5 cfu (or CFU) or 72 hours after challenge with 1×10^6 cfu (or CFU) (Day 0). The results are illustrated in the graph of FIG. 3.

[3] = tested on: Lactobacillus bacteria (LAB); assay: Lactobacillus bacteria (LAB) concentration in ileum, cecum and colon of mice after oral CSA-44; settings: 10 mg/kg oral gastric lavage, 12 and 24 hours post Tx
Procedure: To evaluate the effectiveness of cationic cholesterol compounds on GI microbiota, the following compound (CSA-44) was administered oraly by gastric lavage to mice at 10 mg/kg:
To determine the health improvements caused by the cationic cholesterol compound, the concentration (cfu/mL) of Lactobacillus bacteria (LAB) (beneficial flora) in the ileum, cecum, and colon was determined at 12 and 24 hours. The LAB concentration was compared to control mice.
As illustrated in the graphs of FIGS. 1 and 2, the cationic cholesterol compound appears to have a significant “sparing” effect on beneficial Lactobacillus bacteria (LAB) flora (log values on y-axis) in the ileum, cecum and colon (on x-axis) when compared to control mice at 12 and 24 hours after being given CSA-44 (“post Tx”), resulting in almost a 2 log increase in LAB concentration in all 3 segments of the intestine when compared to control mice. This increase in LAB concentration flora is a surprising and unexpected result.

[4] = Confined animal feed operation study of chickens, additive in drinking water; settings: for Harvest weight / Weight gain: day one through day 35, CSA-44 5 ppm in drinking water, control tetracycline in feed; for Death loss: in vivo
Procedure: A study of 50,000 birds performed in 2 groups of 25,000 birds was performed on a confined animal feed operation. The following cationic cholesterol additive (CSA-44) was added to animal drinking water:
The additive was prepared in drinking water at a concentration of 5 ppm. The dry feed administered to the chickens contained no antibiotic.
A control group of birds was delivered tetracycline in animal feed according to conventional practices.
The cationic cholesterol additive was given from day one through day 35.

In the case of `CCCCCCCCOC(=O)CC[C@@H](C)[C@H]1CC[C@H]2[C@@H]3[C@H](OC(=O)CCN)C[C@@H]4C[C@H](OC(=O)CCN)CC[C@]4(C)[C@H]3C[C@H](OC(=O)CCN)[C@]12C` [CSA-44], the Survival rate [1] is reported as “improved survival rate”, the “Weight gain after challenge with C. difficile” value [2] is reported as “trend for the treated mice to have greater weight gain” and the “Increase in LAB concentration compared to control mice” value [3] is reported as roughly 2 log. For the same compound, the “Feed conversion efficiency improved” value ([4]; chickens, 5 ppm in drinking water, versus tetracycline control) was 8%, the Harvest weight ([4]; chickens) was 4.22 lbs and the Weight gain ([4]; chickens) was 0.120 lbs per day. The Death loss [4] was 535 birds.
For `CN(C)[C@@H]1C(O)=C(C(N)=O)C(=O)[C@@]2(O)C(O)=C3C(=O)c4c(O)cccc4[C@@](C)(O)[C@H]3C[C@@H]12` [tetracycline, reference compound], the Harvest weight ([4]; chickens) was 3.85 lbs, the Weight gain ([4]; chickens) was 0.112 lbs per day and the Death loss [4] was 1400-1500 birds.
